Source: patent publication US11638401B2, “Methods and compositions for increasing tolerance to abiotic stress in plants” (priority 2018, dated 2023)

Assays:
[1] = test system: Soybean; test: Soybean Trial 2018, field trial; format: in vivo; details: Soybean 2018, Elm City N.C.; Photon 8 g ai/A, Aminoguanidine 2 g ai/A; control 22.3; LSD 0.05 3.8
Source text: (§1) In the table below, the treatment labeled “Photon” represents a mixture of azelaic, sebacic, undecanedioic, acids. It is predominantly azelaic acid, and equal parts of the remaining two major constituents. Abbreviations: ai=active ingredient, A=acre, ha=hectare, lbs=pounds, MT=metric ton • Soybean Trial 2018 • Elm City N.C. • Randomized complete block with 5 replicates

[2] = test system: Soybean; test: Soybean - Two Year Summary, field trials; format: in vivo; details: Photon 8 g ai/A, Aminoguanidine 2 g ai/A, control 38.9, LSD 0.01 3.9
Source text: as §1

**Q.** `N=C(N)NN` [Aminoguanidine, aminoguanidine] was tested. Which “Yield (bu/A)” value [1] did it give?
**A.** 24.3 bu/A

**Q.** What about the “Yield (bu/A)” value [2] of the same compound?
**A.** 42.5 bu/A
